Test results published in patent publication EP0987268B1, “Pharmaceutical agents containing epothilone A-N-oxide and/or epothilone B-N-oxide” (Gesellschaft für Biotechnologische Forschung mbH (GBF), priority 1998, dated 2000).

Tests used:
Assay type in all cases: cell-based
[1] = system: mouse fibroblast L929 (ATCC CCL1); experiment: Cytotoxic activity, L929 cells; conditions: cell line mouse fibroblast L929 (ATCC CCL1)
[2] = system: human cervix carcinoma KB 3.1 (DSM ACC 158); experiment: Cytotoxic activity, KB 3.1 cells; conditions: KB 3-1, cell line human cervix carcinoma KB 3.1 (DSM ACC 158)
[3] = system: human lung carcinoma A-549 (DSM ACC 107); experiment: Cytotoxic activity, A-549 cells; conditions: A549, cell line human lung carcinoma A-549 (DSM ACC 107)

SMILES: C/C(=C\c1csc(C)[n+]1[O-])[C@@H]1C[C@@H]2O[C@]2(C)CCC[C@H](C)[C@H](O)[C@@H](C)C(=O)C(C)(C)[C@@H](O)CC(=O)O1 [epothilone B-N-oxide]
- IC50 [1]: 4 nM
- IC50 [2]: 2 nM
- IC50 [3]: 1.5 nM
